{"source": "patent US11291658B2", "about": "“Use of gaboxadol in the treatment of diabetes and related conditions” (Ovid Therapeutics Inc., priority 2017, dated 2022)", "origin": "cited, not measured here", "key": {"[1]": {"settings": "treatment of insomnia, three-month efficacy study"}, "[2]": {"settings": "patients with a history of drug abuse who received gaboxadol"}, "[3]": {"tested_on": "streptozotocin-induced diabetic rats with moderate to severe hyperglycemia", "settings": "Gomez et al. 1999"}}, "data": [{"smiles": "Oc1noc2c1CCNC2", "note": "[gaboxadol, 4,5,6,7-tetrahydroisoxazolo [5,4-c]pyridine-3-ol]", "values": [{"measurement": "effects in sleep onset and sleep maintenance", "setting": "[1]", "value": "failed to show significant effects"}, {"measurement": "psychiatric adverse events", "setting": "[2]", "value": "steep increase in psychiatric adverse events"}, {"measurement": "hypoglycemic effect", "setting": "[3]", "value": "very mild and could only be seen in the moderately hyperglycemic rats"}]}]}
